Data published in patent US20100028892A1, “YEAST BASED EXPRESSION OF PROTEASES AND METHODS OF USE” (Burnham Institute for Medical Research, priority 2008, published 2010).

Key:
Caspases = test: validation of 384 well yeast-based Caspase-dependent lacZ reporter gene assays with pharmacological inhibitors; assay type: cell-based, human; details: 384 well yeast-based Caspase-dependent reporter gene assay
Excerpt: When converting the yeast-based protease reporter system to HTS assay, conditions from agar plates to liquid medium in microtiter wells must be revised. This revision comprises, utilizing the measured β-galactosidase produced by yeast carrying the Caspase-cleavable reporter proteins, and assaying the colorimetric product (OD620nm) derived from X-gal substrate in 384 well plates, as a measure of the lacZ reporter gene activity. We compared β-galactosidase activity produced in the presence or absence of the broad-spectrum caspase inhibitory compound, zVAD-fmk ([…]-Valinyl-Alaninyl-Aspartyl-fluoromethylketone). Among the variables that were initially interrogated were initial seeding cell density, time of culture, concentration of X-gal substrate, and supporting carbohydrate (raffinose vs mannose). Note that it was determined that it is not advisible to employ glucose in yeast media because it represses the GAL1 promoter used in some plasmids. An example of data obtained using the plural-component system of Fas/FADD/Caspase-8 is presented. All variables tested altered the signal:noise ratio of the assay. […] For the two-component system of ASC/Caspase-1 and for the plural-component system of NALP1ΔLRR/ASC/Caspase-1, the same conditions were optimal, among those tested (not shown). For the Fas/Fadd/Caspase 8, the caspase and adaptor protein (Fadd) were expressed at relatively small amounts (a weak promoter and low copy number plasmid are used) and the upstream activator (Fas) was expressed in a large amount.
The 384 well assay format was further validated, using zVAD-fmk, a peptidyl inhibitor with broad-spectrum activity against animal Caspases. […]
The validation results of a yeast-based Caspase assay using a pharmacological inhibitor of Caspases are shown in FIG. 11 consisting of FIGS. 11A-C (A) Caspase-1, single-component assay. […] For (A-C), relative absorbance at 620 nm was measured (mean ±std dev; n=3-5 independent experiments). […]
Assays were performed in a total volume of […] in triplicate. […] Absorbance at 620 nm was measured 2-3 days after culture at 30° C.

Fas/FADD/Caspase-8 = biological target: T1, Fas/FADD/Caspase-8 (Homo sapiens, UniProt P25445+Q13158+Q14790); test: yeast Fas/FADD/Caspase-8 HTS assay with counter-screen strains (lacZ, Asc/Caspase-1, empty vector); assay type: cell-based; details: 384 well, OD620, 2-4 days at 30° C., versus lacZ, Asc/Caspase-1 and empty vector strains
T1 construct: a small amount of each full-length Caspase construct was expressed with a large amount of adaptor protein FADD; HA (C); expressed in transfected cells; host or cells: Saccharomyces cerevisiae EGY48
Procedure: The results of a HTS of a yeast-based NALP1 inflammasome assay are shown in FIG. 12 consisting of FIGS. 12A-G (A) NALP1 yeast screen controls. Yeast cells containing ASC/Nalp1ΔLRR/Caspase1 were plated at 1.88×10^5 cells/well in a 384 well plate in media containing 1% galactose/2% raffinose, with (squares) or without (diamonds) 400 μg/ml X-gal substrate. The plates were incubated for 72 hrs at 30° C. and the plates were read at OD620. (B) Yeast Screen of LOPAC compound library plate 4 for NALP1. Yeast cells containing ASC/NALP1/Caspase1 were plated at 1.88×10^5 cells/well in a 384 well plate in media containing 1% galactose, 2% raffinose, with or without 400 μg/ml X-gal. The plates were incubated for 72 hrs at 30° C. and the plates were read at OD620. The compounds were screened at 100 μM and “hits” were defined by >50% reduction (as shown). (C) Validation of HTS assay for Fas-FADD-Caspase-8 system. Yeast cells containing Fas/FADD/Caspase-8 were cultured in 384 well plates as above with (blue squares) or without (purple diamonds) Xgal substrate, the plates were incubated for 72 hrs at 30° C. and analyzed as above. (D) Example of library screening plate for Fas-FADD-Caspase-8. […] Plates were incubated for 48 hrs at 30° C. and OD620 values recorded. […] Data represent relative fluorescence units (RFU) assessed in the absence or presence of various concentrations of compound (CID-2531). […]

Caspase-8 = Caspase-8 (Homo sapiens, UniProt Q14790); test: in vitro biochemical assay with purified recombinant Caspase-8 and fluorigenic substrate Ac-IETD-AFC; details: purified recombinant Caspase-8, Ac-IETD-AFC, various concentrations of compound
Procedure: The results of a HTS of a yeast-based NALP1 inflammasome assay are shown in FIG. 12 consisting of FIGS. 12A-G (A) NALP1 yeast screen controls. Yeast cells containing ASC/Nalp1ΔLRR/Caspase1 were plated at 1.88×10^5 cells/well in a 384 well plate in media containing 1% galactose/2% raffinose, with (squares) or without (diamonds) 400 μg/ml X-gal substrate. The plates were incubated for 72 hrs at 30° C. and the plates were read at OD620. (B) Yeast Screen of LOPAC compound library plate 4 for NALP1. Yeast cells containing ASC/NALP1/Caspase1 were plated at 1.88×10^5 cells/well in a 384 well plate in media containing 1% galactose, 2% raffinose, with or without 400 μg/ml X-gal. The plates were incubated for 72 hrs at 30° C. and the plates were read at OD620. The compounds were screened at 100 μM and “hits” were defined by >50% reduction (as shown). (C) Validation of HTS assay for Fas-FADD-Caspase-8 system. Yeast cells containing Fas/FADD/Caspase-8 were cultured in 384 well plates as above with (blue squares) or without (purple diamonds) Xgal substrate, the plates were incubated for 72 hrs at 30° C. and analyzed as above. (D) Example of library screening plate for Fas-FADD-Caspase-8. […] Plates were incubated for 48 hrs at 30° C. and OD620 values recorded. […] Data represent relative fluorescence units (RFU) assessed in the absence or presence of various concentrations of compound (CID-2531).

T1 sequence (Q14790 whole entry): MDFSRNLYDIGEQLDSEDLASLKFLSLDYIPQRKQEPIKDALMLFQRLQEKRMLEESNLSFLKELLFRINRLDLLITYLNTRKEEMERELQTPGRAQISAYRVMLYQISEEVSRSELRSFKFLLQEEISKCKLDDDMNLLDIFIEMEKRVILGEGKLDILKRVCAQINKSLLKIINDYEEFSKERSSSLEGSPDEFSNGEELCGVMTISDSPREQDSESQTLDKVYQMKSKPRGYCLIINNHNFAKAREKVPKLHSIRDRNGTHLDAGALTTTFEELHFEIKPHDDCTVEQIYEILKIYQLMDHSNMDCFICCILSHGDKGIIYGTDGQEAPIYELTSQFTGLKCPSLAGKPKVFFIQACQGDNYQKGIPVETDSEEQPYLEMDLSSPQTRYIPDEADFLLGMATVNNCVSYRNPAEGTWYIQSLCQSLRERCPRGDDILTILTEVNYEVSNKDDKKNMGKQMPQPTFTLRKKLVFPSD
T1 sequence (Q13158 whole entry): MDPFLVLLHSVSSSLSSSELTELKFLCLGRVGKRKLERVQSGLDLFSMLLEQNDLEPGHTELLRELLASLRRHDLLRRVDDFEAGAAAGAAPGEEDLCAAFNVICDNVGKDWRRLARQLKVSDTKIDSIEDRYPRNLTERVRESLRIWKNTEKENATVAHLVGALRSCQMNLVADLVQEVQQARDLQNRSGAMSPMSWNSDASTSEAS
T1 sequence (P25445 26-335): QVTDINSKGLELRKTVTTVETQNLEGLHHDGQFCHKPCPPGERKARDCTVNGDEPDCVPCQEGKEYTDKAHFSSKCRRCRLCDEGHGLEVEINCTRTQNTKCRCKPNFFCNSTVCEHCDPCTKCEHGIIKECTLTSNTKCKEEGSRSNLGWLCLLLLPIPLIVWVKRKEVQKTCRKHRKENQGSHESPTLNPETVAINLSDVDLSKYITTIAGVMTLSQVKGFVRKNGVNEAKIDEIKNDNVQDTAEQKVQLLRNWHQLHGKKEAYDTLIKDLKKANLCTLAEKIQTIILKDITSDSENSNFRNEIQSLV
Chain of Caspase-8 (Q14790 217-479): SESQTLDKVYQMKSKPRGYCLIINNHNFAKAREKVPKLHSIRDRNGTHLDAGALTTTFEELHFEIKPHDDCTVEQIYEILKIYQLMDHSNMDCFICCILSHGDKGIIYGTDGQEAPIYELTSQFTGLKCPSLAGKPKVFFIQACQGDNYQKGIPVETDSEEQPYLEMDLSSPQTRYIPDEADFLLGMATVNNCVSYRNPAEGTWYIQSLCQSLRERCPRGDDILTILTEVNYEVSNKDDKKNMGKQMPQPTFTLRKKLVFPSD

SMILES	selective inhibition of Fas-FADD-Caspase-8 (Fas/FADD/Caspase-8)	further results
CCCC[C@@H](C=O)NC(=O)[C@H](CC(C)C)NC(=O)OCc1ccccc1 [Calpain inhibitor, calpeptin]	–	effect on β-galactosidase activity / activation of the lacZ reporter gene (Caspases): did not suppress activation of the lacZ reporter gene
C[n+]1cc2c3c(ccc2c2ccc4cc5c(cc4c21)OCO5)OCO3 [CID-5154]	evidence of selective inhibition	–
Clc1ccc(C(c2ccc(Cl)cc2)n2cc[n+](CC(OCc3ccc(Cl)cc3Cl)c3ccc(Cl)cc3Cl)c2)cc1 (stereo not shown) [CID-2531]	–	inhibition of Caspase-8 (relative fluorescence units) (Caspase-8): evidence of inhibition of Caspase-8
c1ccc2c(c1)[I+]c1ccccc1-2 [CID-3101]	evidence of selective inhibition	–
